Reference: ChEMBL document CHEMBL5625160, “Development of a next-generation endogenous OCT4 inducer and its anti-aging effect in vivo” (Eur J Med Chem, 2023)
Activity calls are given as the source filed them. No cut-off for these calls is given here.

Legend:
NCCIT [1] = test: Cytotoxicity against human NCCIT cells assessed as inhibition of cell viability measured after 48 hrs by MTT assay; type: functional, cell-based
Fibroblast [2] = test: Reprogramming activity in human Fibroblast cells harbouring LTR7-GFP assessed as induction of iPSCs from somatic cells by measuring TRA-160 positive colonies at 5 uM measured after 7 days in presence of SOX2/KLF4/L-MYC/LIN28 (SKML); type: functional, cell-based; conditions: time 7.0 day
[3] = target: POU domain, class 5, transcription factor 1 (Homo sapiens) (UniProt Q01860); test: Induction of OCT4 (unknown origin) expressed in HEK cells assessed as increase in luminescence signal measured after 24 hrs by luciferase reporter assay; type: cell-based
POU domain, class 5, transcription factor 1 (Homo sapiens), sequence (Q01860 whole entry, the tested form may be a part): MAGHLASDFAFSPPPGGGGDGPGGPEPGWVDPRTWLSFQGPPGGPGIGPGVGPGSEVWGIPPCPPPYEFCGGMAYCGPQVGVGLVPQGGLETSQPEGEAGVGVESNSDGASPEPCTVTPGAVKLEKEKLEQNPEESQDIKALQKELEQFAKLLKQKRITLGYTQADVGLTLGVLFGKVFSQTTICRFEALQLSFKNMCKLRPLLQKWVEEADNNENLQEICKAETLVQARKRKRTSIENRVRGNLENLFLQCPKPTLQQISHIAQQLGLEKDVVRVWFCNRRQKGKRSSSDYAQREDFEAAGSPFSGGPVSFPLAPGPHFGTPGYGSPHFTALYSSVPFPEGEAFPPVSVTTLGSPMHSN

[4] = Cytotoxicity against human HFF cells assessed as inhibition of cell viability measured after 48 hrs by MTT assay; type: toxicity, cell-based
[5] = target: Homeobox protein NANOG (Homo sapiens) (UniProt Q9H9S0); test: Induction of NANOG (unknown origin) expressed in human NCCIT reporter cells assessed as increase in luminescence signal measured after 24 hrs by luciferase reporter assay; type: cell-based
Homeobox protein NANOG (Homo sapiens), sequence (Q9H9S0 whole entry, the tested form may be a part): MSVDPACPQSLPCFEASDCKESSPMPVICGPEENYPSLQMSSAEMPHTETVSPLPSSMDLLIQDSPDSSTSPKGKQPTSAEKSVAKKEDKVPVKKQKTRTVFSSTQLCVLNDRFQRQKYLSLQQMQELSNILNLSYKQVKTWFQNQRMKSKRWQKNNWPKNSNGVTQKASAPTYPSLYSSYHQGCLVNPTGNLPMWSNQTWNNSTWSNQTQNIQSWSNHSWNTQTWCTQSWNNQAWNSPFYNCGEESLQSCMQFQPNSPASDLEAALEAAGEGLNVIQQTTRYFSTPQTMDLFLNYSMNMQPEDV

[6] = target: POU domain, class 5, transcription factor 1 (Homo sapiens) (UniProt Q01860); test: Induction of OCT4 (unknown origin) expressed in human NCCIT reporter cells assessed as increase in luminescence signal measured after 24 hrs by luciferase reporter assay; type: cell-based
Drosophila [7] = test: Anti-aging activity in Drosophila assessed as extension of life span; type: functional, organism-based
[8] = target: Splicing factor 3B subunit 1 (Homo sapiens) (UniProt O75533); test: Thermal stabilization of SF3B1 (unknown origin) assessed as increase in denaturation temperature by thermal shift assay (reference value: 58.5+/-2.05 degreeC)
Splicing factor 3B subunit 1 (Homo sapiens), sequence (O75533 whole entry): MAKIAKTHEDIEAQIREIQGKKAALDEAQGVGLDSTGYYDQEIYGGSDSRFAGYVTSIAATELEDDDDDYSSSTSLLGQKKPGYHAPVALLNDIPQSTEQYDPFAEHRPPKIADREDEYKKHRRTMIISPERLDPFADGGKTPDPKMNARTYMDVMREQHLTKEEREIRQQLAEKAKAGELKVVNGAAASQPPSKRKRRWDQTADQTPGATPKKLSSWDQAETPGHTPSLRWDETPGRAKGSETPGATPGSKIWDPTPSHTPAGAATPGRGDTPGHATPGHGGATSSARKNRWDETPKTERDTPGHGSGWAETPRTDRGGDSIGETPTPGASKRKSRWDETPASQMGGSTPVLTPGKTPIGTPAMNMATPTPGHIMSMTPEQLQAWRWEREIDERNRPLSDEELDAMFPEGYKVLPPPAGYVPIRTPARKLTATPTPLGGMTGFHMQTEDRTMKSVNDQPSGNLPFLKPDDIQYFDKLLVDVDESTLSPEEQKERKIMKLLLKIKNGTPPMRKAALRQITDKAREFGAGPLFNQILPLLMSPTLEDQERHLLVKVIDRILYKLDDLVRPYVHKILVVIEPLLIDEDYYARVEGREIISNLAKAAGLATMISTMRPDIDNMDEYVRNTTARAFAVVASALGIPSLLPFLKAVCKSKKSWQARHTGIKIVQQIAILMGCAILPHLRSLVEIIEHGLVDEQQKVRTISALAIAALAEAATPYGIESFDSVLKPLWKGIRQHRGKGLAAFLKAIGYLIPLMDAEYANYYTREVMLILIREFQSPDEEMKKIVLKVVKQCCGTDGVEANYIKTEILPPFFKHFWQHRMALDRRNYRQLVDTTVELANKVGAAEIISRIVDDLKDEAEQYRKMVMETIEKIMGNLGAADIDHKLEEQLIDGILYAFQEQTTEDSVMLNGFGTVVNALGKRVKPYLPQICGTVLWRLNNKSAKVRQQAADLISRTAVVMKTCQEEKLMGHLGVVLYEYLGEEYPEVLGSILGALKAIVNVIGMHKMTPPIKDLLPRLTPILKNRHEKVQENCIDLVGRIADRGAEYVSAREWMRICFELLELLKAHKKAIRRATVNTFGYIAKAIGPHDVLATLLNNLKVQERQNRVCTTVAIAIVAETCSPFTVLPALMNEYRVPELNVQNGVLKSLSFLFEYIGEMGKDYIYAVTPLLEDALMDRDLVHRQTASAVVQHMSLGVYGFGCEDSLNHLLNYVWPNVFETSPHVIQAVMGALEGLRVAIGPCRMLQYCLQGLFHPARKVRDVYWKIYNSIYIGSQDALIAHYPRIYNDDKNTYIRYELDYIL

[9] = Membrane permeability of the compound; type: ADME
Albumin = Albumin (Homo sapiens, UniProt P02768); test: Protein binding in serum albumin (unknown origin); type: ADME; conditions: read-out: PB (converted)
Albumin, sequence (P02768 whole entry): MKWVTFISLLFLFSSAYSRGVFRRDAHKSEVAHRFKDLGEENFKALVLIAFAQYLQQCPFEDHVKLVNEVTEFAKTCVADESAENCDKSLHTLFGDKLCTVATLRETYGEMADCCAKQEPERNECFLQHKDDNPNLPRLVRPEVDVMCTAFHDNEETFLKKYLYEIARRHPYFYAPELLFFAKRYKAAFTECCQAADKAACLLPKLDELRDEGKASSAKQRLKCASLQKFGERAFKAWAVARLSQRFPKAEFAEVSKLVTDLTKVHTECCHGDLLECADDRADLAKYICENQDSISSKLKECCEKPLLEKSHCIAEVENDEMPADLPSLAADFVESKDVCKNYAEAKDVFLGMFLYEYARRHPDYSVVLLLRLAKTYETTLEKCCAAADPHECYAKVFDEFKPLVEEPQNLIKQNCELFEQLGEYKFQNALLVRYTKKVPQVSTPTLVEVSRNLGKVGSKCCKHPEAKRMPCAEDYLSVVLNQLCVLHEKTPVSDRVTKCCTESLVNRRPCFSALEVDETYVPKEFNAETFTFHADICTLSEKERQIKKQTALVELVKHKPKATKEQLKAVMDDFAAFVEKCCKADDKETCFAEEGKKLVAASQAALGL

Drosophila [10] = test: Anti-aging activity in Drosophila; type: functional, organism-based
NCCIT [11] = test: Upregulation of OCT4 level in human NCCIT cells measured after 5 days by immunoblot analysis; type: functional, cell-based; conditions: dose 1-50 µM, time 5.0 day
NCCIT [12] = test: Upregulation of OCT4 level in human NCCIT cells by fluorescence-activated cell sorter analysis; type: functional, cell-based
HFF [13] = test: Effect on SOX2 expression in human HFF cells; type: functional, cell-based
[14] = Upregulation of OCT4 expression in human NCCIT cells assessed as fold increase at 5 to 10 uM measured after 2 days by qRT-PCR analysis; type: functional; conditions: dose 5-10 µM; time 2 day
Drosophila [15] = test: Anti-aging activity in Drosophila assessed as increase in life span at early adulthood at 20 uM measured upto 60 days relative to control; type: functional; conditions: 1440 h, time <= 60 day
NCCIT [16] = test: Upregulation of E-cadherin expression in human NCCIT cells at 5 to 10 uM measured after 2 days by qRT-PCR analysis; type: functional, cell-based; conditions: dose 5-10 µM, time 2.0 day
NCCIT [17] = test: Upregulation of NANOG level in human NCCIT cells by fluorescence-activated cell sorter analysis; type: functional, cell-based
HFF [18] = test: Effect on OCT expression in human HFF cells; type: functional, cell-based
NCCIT [19] = test: Upregulation of SOX2 expression in human NCCIT cells at 5 to 10 uM measured after 2 days by qRT-PCR analysis; type: functional, cell-based; conditions: dose 5-10 µM, time 2.0 day
Caenorhabditis elegans [20] = test: Anti-aging activity in wild type Caenorhabditis elegans N2 assessed as increase in life extension at 0.5 uM measured upto 40 days; type: functional, organism-based; conditions: time <= 40.0 day
NCCIT [21] = test: Upregulation of STAT3 expression in human NCCIT cells at 5 to 10 uM measured after 2 days by qRT-PCR analysis; type: functional, cell-based; conditions: dose 5-10 µM, time 2.0 day
NCCIT [22] = test: Upregulation of E-cadherin level in human NCCIT cells by fluorescence-activated cell sorter analysis; type: functional, cell-based
NCCIT [23] = test: Upregulation of REX1 expression in human NCCIT cells at 5 to 10 uM measured after 2 days by qRT-PCR analysis; type: functional, cell-based; conditions: dose 5-10 µM, time 2.0 day
[24] = Upregulation of NANOG expression in human NCCIT cells assessed as fold increase at 5 to 10 uM measured after 2 days by qRT-PCR analysis; type: functional; conditions: dose 5-10 µM; time 2 day
Caenorhabditis elegans [25] = test: Anti-aging activity in wild type Caenorhabditis elegans N2 assessed as increase in survival rate measured after 48 hrs under oxidative stress; type: functional, organism-based
[26] = target: POU domain, class 5, transcription factor 1 (Homo sapiens) (UniProt Q01860); test: Induction of OCT4 in human HFF cells measured after 8 hrs; type: cell-based; conditions: filed as activator
HFF [27] = test: Effect on NANOG expression in human HFF cells; type: functional, cell-based
NCCIT [28] = test: Upregulation of SOX2 level in human NCCIT cells by fluorescence-activated cell sorter analysis; type: functional, cell-based
Fibroblast [29] = test: Upregulation of OCT4 level in human Fibroblast cells measured after 5 days by immunoblot analysis; type: functional, cell-based; conditions: dose 5-50 µM, time 5.0 day
Caenorhabditis elegans [30] = test: Anti-aging activity in Caenorhabditis elegans […] assessed as induction of daf-16 nuclear translocation measured after 24 hrs; type: functional, organism-based
Fibroblast [31] = test: Reduction in OCT4 expression in SF3B1 siRNA human Fibroblast cells harbouring LTR7-EGFP; type: functional, cell-based
Drosophila [32] = test: Anti-aging activity in Drosophila assessed as increase in life span at late adulthood at 20 uM measured upto 60 days; type: functional, organism-based; conditions: time <= 60.0 day
Drosophila [33] = test: Anti-aging activity in Drosophila assessed as increase in life span at 20 uM measured upto 60 days relative to control; type: functional; conditions: 1440 h, time <= 60 day

With `CCOC(=O)c1csc(Nc2ccc(C(=O)O)cc2)n1` the IC50 (NCCIT [1]) was greater than 20 µM, the Activity (Fibroblast [2]) was “Active” and the Activity ([3]; filed as activator) was “Active”. For the same molecule, the IC50 at 48 h [4] was greater than 20 µM, the Activity ([5]; filed as activator) was “Active” and the Activity ([6]; filed as activator) was “Active”.
In the case of `CCOC(=O)c1csc(Nc2ccc(O)cc2)n1`, the IC50 (NCCIT [1]) is reported as greater than 20 µM, the Activity [3] is reported as “inactive” and the IC50 at 48 h [4] is reported as greater than 20 µM. The Activity [5] was “inactive” and the Activity [6] was “inactive”.
Work on `Cc1ccccc1Nc1nc(C(C)(C)C)cs1` yielded an IC50 (NCCIT [1]) of 9.38 µM and an IC50 at 48 h [4] greater than 20 µM.
In the case of `CCOC(=O)c1csc(Nc2ccc(OC)cc2)n1`, the IC50 (NCCIT [1]) is reported as greater than 20 µM, the Activity [3] is reported as “inactive” and the IC50 at 48 h [4] is reported as greater than 20 µM. For the same molecule, the Activity [5] was “inactive” and the Activity [6] was “inactive”.
For `CCOC(=O)c1csc(Nc2ccc(C)cc2)n1`, the IC50 (NCCIT [1]) was greater than 20 µM, the Activity [3] was “inactive” and the IC50 at 48 h [4] was greater than 20 µM. The Activity [5] was “inactive” and the Activity [6] was “inactive”.
In the case of `Cc1ccc(Nc2nc(C(C)(C)C)cs2)c(C)c1`, the IC50 (NCCIT [1]) is reported as greater than 20 µM and the IC50 at 48 h [4] is reported as greater than 20 µM.
For `Cc1ccc(-c2cn3cc(C)ccc3n2)cc1`, the Activity (Fibroblast [2]) was “Active”.
In the case of `CCOC(=O)c1csc(Nc2cc(OC)ccc2OC)n1`, the IC50 (NCCIT [1]) is reported as greater than 20 µM, the Activity [3] is reported as “inactive” and the IC50 at 48 h [4] is reported as greater than 20 µM. The Activity [5] was “inactive” and the Activity [6] was “inactive”.
For `CCOC(=O)c1csc(Nc2ccc(C)cc2Br)n1`, the IC50 (NCCIT [1]) was greater than 20 µM, the Activity (Fibroblast [2]) was “Active” and the Activity ([3]; filed as activator) was “Active”. The IC50 at 48 h [4] was greater than 20 µM, the Activity [5] was “inactive” and the Activity [6] was “inactive”.
`Cc1ccc(Nc2nc(C(C)(C)C)cs2)cc1` gave an IC50 (NCCIT [1]) greater than 20 µM and an IC50 at 48 h [4] greater than 20 µM.
With `CC(C)(C)c1csc(Nc2ccc(Cl)cc2)n1` the IC50 (NCCIT [1]) was 19.7 µM, the Activity (Fibroblast [2]) was “inactive” and the IC50 at 48 h [4] was greater than 20 µM.
With `CCOC(=O)c1csc(Nc2ccc(OC)cc2OC)n1` the IC50 (NCCIT [1]) was greater than 20 µM, the Activity [3] was “inactive” and the IC50 at 48 h [4] was greater than 20 µM. The Activity [5] was “inactive” and the Activity [6] was “inactive”.
In the case of `C=C[C@@]1(C)CC(=O)[C@]2(O)[C@@]3(C)[C@@H](O)CCC(C)(C)[C@@H]3[C@H](O)[C@H](OC(C)=O)[C@@]2(C)O1`, the Activity (Drosophila [7]) is reported as “inactive”.
For `CCOC(=O)c1csc(Nc2cc(C(F)(F)F)cc(C(F)(F)F)c2)n1`, the IC50 (NCCIT [1]) was greater than 20 µM, the Activity [3] was “inactive” and the IC50 at 48 h [4] was greater than 20 µM. For the same molecule, the Activity [5] was “inactive” and the Activity [6] was “inactive”.
In the case of `CCOC(=O)c1csc(Nc2ccc(Br)cc2C)n1`, the IC50 (NCCIT [1]) is reported as greater than 20 µM, the Activity ([3]; filed as activator) is reported as “Active” and the IC50 at 48 h [4] is reported as greater than 20 µM. For the same molecule, the Activity [5] was “inactive” and the Activity [6] was “inactive”.
For `Cc1cccc(Nc2nc(C(C)(C)C)cs2)c1`, the IC50 (NCCIT [1]) was 5.96 µM and the IC50 at 48 h [4] was 11.6 µM.
Molecule `CC(C)(C)c1csc(Nc2ccccc2)n1` has an IC50 (NCCIT [1]) greater than 20 µM and an IC50 at 48 h [4] greater than 20 µM.
In the case of `CCOC(=O)c1csc(Nc2ccc([N+](=O)[O-])cc2)n1`, the IC50 (NCCIT [1]) is reported as greater than 20 µM, the Activity ([3]; filed as activator) is reported as “Active” and the IC50 at 48 h [4] is reported as greater than 20 µM. For the same molecule, the Activity [5] was “inactive” and the Activity [6] was “inactive”.
With `CCOC(=O)c1csc(Nc2ccc(F)cc2F)n1` the IC50 (NCCIT [1]) was greater than 20 µM, the Activity ([3]; filed as activator) was “Active” and the IC50 at 48 h [4] was greater than 20 µM. The Activity [5] was “inactive” and the Activity [6] was “inactive”.
For `Clc1ccc(Nc2nc(-c3ccc4ccccc4c3)cs2)cc1`, the IC50 (NCCIT [1]) was greater than 20 µM and the IC50 at 48 h [4] was greater than 20 µM.
For `CCOC(=O)c1csc(Nc2cc(F)ccc2F)n1`, the IC50 (NCCIT [1]) was greater than 20 µM, the Activity ([3]; filed as activator) was “Active” and the IC50 at 48 h [4] was greater than 20 µM. The Activity [5] was “inactive” and the Activity [6] was “inactive”.
With `CCOC(=O)c1csc(Nc2ccc(C#N)cc2)n1` the IC50 (NCCIT [1]) was greater than 20 µM, the Activity [3] was “inactive” and the IC50 at 48 h [4] was greater than 20 µM. The Activity [5] was “inactive” and the Activity [6] was “inactive”.
For `CCOC(=O)c1csc(Nc2ccc(Cl)cc2)n1`, the T [8] was 64.7 °C, the Activity (Fibroblast [2]) was “Active” and the Activity [3] was “inactive”. For the same molecule, the Activity [5] was “inactive”, the Activity [6] was “inactive” and the permeability [9] was 70%. For the same molecule, the fraction unbound (Albumin) was 0.1 and the Activity (Drosophila [10]) was “inactive”.
For `CCOC(=O)c1csc(Nc2ccc(Cl)cc2OC)n1`, the IC50 (NCCIT [1]) was greater than 20 µM, the Activity [3] was “inactive” and the IC50 at 48 h [4] was greater than 20 µM. For the same molecule, the Activity [5] was “inactive” and the Activity [6] was “inactive”.
With `Cc1cccc(Nc2nc(C(C)(C)C)cs2)c1C` the Activity (NCCIT [11]) was “Dose-Dependent Effect”, the Activity (NCCIT [12]) was “Active” and the IC50 (NCCIT [1]) was 10.9 µM. For the same molecule, the T [8] was 64.9 °C, the Activity (HFF [13]) was “Active” and the “fold change (FC)” value [14] was 3. For the same molecule, the Activity (Fibroblast [2]) was “Active”, the ILS at 20 µM (Drosophila [15]) was 10% and the Activity ([3]; filed as activator) was “Active”. For the same molecule, the Activity (NCCIT [16]) was “Active”, the Activity (NCCIT [17]) was “Active” and the Activity (HFF [18]) was “Active”. For the same molecule, the Activity (NCCIT [19]) was “Active”, the IC50 at 48 h [4] was greater than 20 µM and the Activity (Caenorhabditis elegans [20]) was “Active”. The Activity (NCCIT [21]) was “Active”, the Activity (NCCIT [22]) was “Active” and the Activity ([5]; filed as activator) was “Active”. For the same molecule, the Activity (NCCIT [23]) was “Active”, the Activity ([6]; filed as activator) was “Active” and the “fold change (FC)” value [24] was 30. For the same molecule, the Activity (Caenorhabditis elegans [25]) was “Active”, the Activity [26] was “Active” and the Activity (HFF [27]) was “Active”. The Activity (NCCIT [28]) was “Active”, the Activity (Fibroblast [29]) was “Dose-Dependent Effect” and the Activity (Caenorhabditis elegans [30]) was “Active”. For the same molecule, the Activity (Fibroblast [31]) was “Active”, the ILS (Drosophila [32]) was “inactive” and the ILS at 20 µM (Drosophila [33]) was 5%.
With `Clc1ccc(Nc2nc(-c3ccccc3)cs2)cc1` the IC50 (NCCIT [1]) was greater than 20 µM and the IC50 at 48 h [4] was greater than 20 µM.
